{
  "source": "patent US6465482B2",
  "about": "“Arylpiperazinyl-cyclohexyl indole derivatives for the treatment of depression” (Wyeth, priority 1999, dated 2002)",
  "note": "Counter-ions that a name gives are not always drawn.",
  "data": [
    {"values": [
      {"smiles": "COc1cc(N2CCN([C@H]3CC[C@@H](c4cn(C)c5ccc(C#N)cc54)CC3)CC2)c2nccc(C)c2c1", "note": "[Example 51c, (cis)-3-{4-[4-(6-Methoxy-4-methylquinolin-8-yl)piperazin-1-yl]cyclohexyl}-1-methyl-1H-indole-5-carbonitrile]", "melting point": "210 to 212 °C"},
      {"smiles": "Fc1ccc2[nH]cc([C@H]3CC[C@@H](N4CCN(c5cccc6[nH]ccc56)CC4)CC3)c2c1", "note": "(as salt: HCl) [Example 3a, 5-Fluoro-3-[cis-4-[4-(1H-indol-4-yl)-1-piperazinyl]cyclohexyl]-1H-indole]", "melting point": "215 to 217 °C"},
      {"smiles": "COc1cc(N2CCN([C@H]3CC[C@@H](c4cn(C)c5ccc(C#N)cc54)CC3)CC2)c2nc(C)ccc2c1", "note": "[Example 51a, (cis)-3-{4-[4-(6-Methoxy-2-methylquinolin-8-yl)piperazin-1-yl]cyclohexyl}-1-methyl-1H-indole-5-carbonitrile]", "melting point": "201 to 203 °C"},
      {"smiles": "c1cc(N2CCN([C@H]3CC[C@@H](c4c[nH]c5ccccc54)CC3)CC2)c2cc[nH]c2c1", "note": "(as salt: HCl) [Example 1a, 3-[cis-4-[4-(1H-Indol-4-yl)-1-piperazinyl]cyclohexyl]-1H-indole]", "melting point": "198 to 200 °C"},
      {"smiles": "Fc1cc2c(c(N3CCN([C@H]4CC[C@H](c5c[nH]c6ccc(F)cc65)CC4)CC3)c1)OCCC2", "note": "(as salt: HCl) (hydrate or solvate) [Example 31b, 5-Fluoro-3-{(1,4-trans)-4-[4-(6-fluoro-chroman-8-yl)-piperazin-1-yl]-cyclohexyl}-1H-indole]", "melting point": "286 to 288 °C"},
      {"smiles": "Fc1cccc2[nH]cc([C@H]3CC[C@@H](N4CCN(c5cccc6c5OCCO6)CC4)CC3)c12", "note": "(as salt: HCl) [Example 23a, 3-{(1,4-cis)-4-[4-(2,3-Dihydro-benzo[1,4]dioxin-5-yl)-piperazin-1-yl]-cyclohexyl}-4-fluoro-1H-indole]", "melting point": "215 to 220 °C"},
      {"smiles": "Cn1cc([C@H]2CC[C@H](N3CCN(c4cc(C=O)cc5cccnc45)CC3)CC2)c2cc(C#N)ccc21", "note": "[Example 72, 8-[4-[(trans)-4-(5-Cyano-1-methyl-1H-indole-3-yl)-cyclohexyl]-piperazin-1-yl]-6-quinolinecarbaldehyde]", "melting point": "201 to 203 °C"},
      {"smiles": "Cn1cc([C@H]2CC[C@@H](N3CCN(c4cc(Br)cc5cccnc45)CC3)CC2)c2cc(F)ccc21", "note": "[Example 58a, (cis)-6-Bromo-8-{4-[4-(5-fluoro-1-methyl-1H-indol-3-yl)cyclohexyl]piperazin-1-yl}quinoline]", "melting point": "215 to 217 °C"},
      {"smiles": "COc1ccccc1N1CCN(C2CC=C(c3c[nH]c4ccc(F)cc34)CC2)CC1", "note": "(centres unmarked) (as salt: HCl) [Example 35, 5-Fluoro-3-{4-[4-(2-methoxy-phenyl)-piperazin-1-yl]cyclohex-1-enyl}-1H-indole]", "melting point": "250 °C"},
      {"smiles": "Clc1ccc2[nH]cc([C@H]3CC[C@H](N4CCN(c5cccc6[nH]ccc56)CC4)CC3)c2c1", "note": "(as salt: HCl) (hydrate or solvate) [Example 6b, 5-Chloro-3-[trans-4-[4-(1H-indol-4-yl)-1-piperazinyl]cyclohexyl]-1H-indole]", "melting point": "314 to 315.5 °C"},
      {"smiles": "COc1cc(N2CCN([C@H]3CC[C@@H](c4cn(C)c5cc(F)ccc54)CC3)CC2)c2ncccc2c1", "note": "[Example 81, 8-{cis-4-[4-(6-Fluoro-1-methyl-1H-indol-3-yl)cyclohexyl]-1-piperazinyl}-6-methoxyquinoline]", "melting point": "219 to 223 °C"},
      {"smiles": "COc1cc(N2CCN([C@H]3CC[C@@H](c4cn(C)c5ncccc54)CC3)CC2)c2ncccc2c1", "note": "[Example 79, 6-Methoxy-8-{cis-4-[4-(1-methyl-1H-pyrrolo[2,3-b]pyridin-3-yl)cyclohexyl]-1-piperazinyl}quinoline]", "melting point": "105 to 110 °C"},
      {"smiles": "COc1cc(N2CCN([C@H]3CC[C@@H](c4cn(C)c5ccc(C#N)cc54)CC3)CC2)c2ncccc2c1Cl", "note": "[Example 52e, (cis)-3-{4-[4-(5-Chloro-6-methoxyquinolin-8-yl)piperazin-1-yl]cyclohexyl}-1-methyl-1H-indole-5-carbonitrile]", "melting point": "231 °C"},
      {"smiles": "COc1cc(N2CCN([C@H]3CC[C@H](c4cn(C)c5ccc(C#N)cc54)CC3)CC2)c2ncccc2c1C", "note": "[Example 52b, (trans)-3-{4-[4-(6-Methoxy-5-methylquinolin-8-yl)piperazin-1-yl]cyclohexyl}-1-methyl-1H-indole-5-carbonitrile]", "melting point": "212 to 213 °C"},
      {"smiles": "COc1cc(N2CCN([C@H]3CC[C@@H](c4cn(C)c5ccc(C#N)cc54)CC3)CC2)c2ncccc2c1C", "note": "[Example 52a, (cis)-3-{4-[4-(6-Methoxy-5-methylquinolin-8-yl)piperazin-1-yl]cyclohexyl}-1-methyl-1H-indole-5-carbonitrile]", "melting point": "227 to 228 °C"},
      {"smiles": "Cn1cc([C@H]2CC[C@@H](N3CCN(c4cc(C(=O)O)cc5cccnc45)CC3)CC2)c2cc(C#N)ccc21", "note": "(as salt: oxalate) [Example 73, 8-[4-[(cis)-4-(5-Cyano-1-methyl-1H-indole-3-yl)cyclohexyl]-1-piperazinyl]-6-quinolinecarboxylic Acid]", "melting point": "230 °C"},
      {"smiles": "Cn1cc([C@H]2CC[C@H](N3CCN(c4cccc5[nH]ccc45)CC3)CC2)c2cc(C#N)ccc21", "note": "(as salt: HCl) (hydrate or solvate) [Example 12b, 3-{(1,4-trans)-4-[4-(1H-indol-4-yl)-piperazin-1-yl]-cyclohexyl}-1-methyl-1H-indole-5-carbonitrile]", "melting point": "286 to 288 °C"},
      {"smiles": "COc1cc(N2CCN([C@H]3CC[C@@H](c4c[nH]c5cc(F)ccc54)CC3)CC2)c2ncccc2c1", "note": "[Example 80, 8-{cis-4-[4-(6-Fluoro-1H-indol-3-yl)cyclohexyl]-1-piperazinyl}-6-methoxyquinoline]", "melting point": "239 to 243 °C"},
      {"smiles": "COc1ccc(F)cc1N1CCN([C@H]2CC[C@@H](c3c[nH]c4ccc(F)cc43)CC2)CC1", "note": "(as salt: HCl) [Example 22a, 5-Fluoro-3-{(cis)-4-[4-(5-fluoro-2-methoxy-phenyl)-piperazin-1-yl]-cyclohexyl}-1H-indole]", "melting point": "171 to 174 °C"},
      {"smiles": "N#Cc1ccc2[nH]cc(C3=CCC(N4CCN(c5cccc6[nH]ccc56)CC4)CC3)c2c1", "note": "(centres unmarked) (as salt: HCl) [Example 36, 3-{4-[4-(1H-Indol-4-yl)-piperazin-1-yl]-cyclohex-1-enyl}-1H-indole-5-carbonitrile]", "melting point": "199 to 201 °C"},
      {"smiles": "CCn1cc([C@H]2CC[C@H](N3CCN(c4cccc5[nH]ccc45)CC3)CC2)c2cc(C#N)ccc21", "note": "(as salt: HCl) [Example 13b, 1-Ethyl-3-{(1,4-trans)-4-[4-(1H-indol-4-yl)-piperazin-1-yl]-cyclohexyl}-1H-indole-5-carbonitrile]", "melting point": "250 °C (dec.)"},
      {"smiles": "Fc1ccc2[nH]cc([C@H]3CC[C@H](N4CCN(c5cccc6[nH]ccc56)CC4)CC3)c2c1", "note": "(as salt: HCl) [Example 3b, 5-Fluoro-3-[trans-4-[4-(1H-indol-4-yl)-1-piperazinyl]cyclohexyl]-1H-indole]", "melting point": "280 °C (dec.)"},
      {"smiles": "Fc1cc2c(c(N3CCN([C@H]4CC[C@@H](c5c[nH]c6ccc(F)cc65)CC4)CC3)c1)OCC2", "note": "(as salt: HCl) (hydrate or solvate) [Example 32a, 5-Fluoro-3-{(1,4-cis)-4-[4-(5-fluoro-2,3-dihydro-benzofuran-7-yl)-piperazin-1-yl]-cyclohexyl}-1H-indole]", "melting point": "196 to 198 °C"},
      {"smiles": "COc1ccc2[nH]cc([C@H]3CC[C@@H](N4CCN(c5cccc6[nH]ccc56)CC4)CC3)c2c1", "note": "(as salt: HCl) (hydrate or solvate) [Example 8a, 5-Methoxy-3-[cis-4-[4-(1H-indol-4-yl)-1-piperazinyl]cyclohexyl]-1H-indole]", "melting point": "283 to 285 °C"},
      {"smiles": "COc1cc(N2CCN(C3CCC(c4c[nH]c5cc(C#N)ccc45)CC3)CC2)c2ncccc2c1", "note": "(centres unmarked) [Example 85, 3-{4-[4-(6-Methoxy-8-quinolinyl)-1-piperazinyl]cyclohexyl}-1H-indole-6-carbonitrile]", "melting point": "242 to 244 °C"},
      {"smiles": "Cn1cc([C@H]2CC[C@@H](N3CCN(c4cc(C=O)cc5cccnc45)CC3)CC2)c2cc(C#N)ccc21", "note": "(as salt: oxalate) [Example 71, 8-[4-[(cis)-4-(5-Cyano-1-methyl-1H-indole-3-yl)-cyclohexyl]-piperazin-1-yl]-6-quinolinecarbaldehyde]", "melting point": "172 to 174 °C"},
      {"smiles": "Fc1cc2c(c(N3CCN([C@H]4CC[C@H](c5c[nH]c6ccc(F)cc65)CC4)CC3)c1)OCC2", "note": "(as salt: HCl) (hydrate or solvate) [Example 32b, 5-Fluoro-3-{(1,4-trans)-4-[4-(5-fluoro-2,3-dihydro-benzofuran-7-yl)-piperazin-1-yl]-cyclohexyl}-1H-indole]", "melting point": "303 to 305 °C"},
      {"smiles": "COc1cc(N2CCN([C@H]3CC[C@@H](c4c[nH]c5ncccc54)CC3)CC2)c2ncccc2c1", "note": "(as salt: oxalate) [Example 78, 6-Methoxy-8-{cis-4-[4-(1H-pyrrolo[2,3-b]pyridin-3-yl)cyclohexyl]-1-piperazinyl}quinoline]", "melting point": "216 to 220 °C"},
      {"smiles": "c1cc(N2CCN([C@H]3CC[C@H](c4c[nH]c5ncccc54)CC3)CC2)c2cc[nH]c2c1", "note": "(as salt: HCl) [Example 10b, 3-{(1,4-trans)-4-[4-(1H-Indole-4-yl)-piperazin-1-yl]-cyclohexyl}-1H-pyrrolo[2,3-b]pyridine]", "melting point": "> 250 °C (dec.)"},
      {"smiles": "COc1cc(N2CCN([C@H]3CC[C@H](c4cn(C)c5ccc(C#N)cc54)CC3)CC2)c2nccc(C)c2c1", "note": "[Example 51d, (trans)-3-{4-[4-(6-Methoxy-4-methylquinolin-8-yl)piperazin-1-yl]cyclohexyl}-1-methyl-1H-indole-5-carbonitrile]", "melting point": "230 to 232 °C"},
      {"smiles": "Cn1ccc2c(N3CCN([C@H]4CC[C@@H](c5cn(C)c6ccc(C#N)cc65)CC4)CC3)cccc21", "note": "(as salt: HCl) [Example 17, 1-Methyl-3-{(1,4-cis)-4-[4-(1-methyl-1H-indol-4-yl)-piperazin-1-yl]-cyclohexyl}-1H-indole-5-carbonitrile]", "melting point": "252 to 255 °C"},
      {"smiles": "N#Cc1ccc2[nH]cc([C@H]3CC[C@H](N4CCN(c5cc(F)cc6c5OCC6)CC4)CC3)c2c1", "note": "(as salt: HCl) (hydrate or solvate) [Example 33b, 3-{(1,4-trans)-4-[4-(5-Fluoro-2,3-dihydro-benzofuran-7-yl)-piperazin-1-yl]-cyclohexyl}-1H-indole-5-carbonitrile]", "melting point": "330 to 331 °C"}
    ]}
  ]
}
